Results as given in patent US20240299359A1, “PHARMACEUTICAL COMPOSITION FOR ANIMALS CONTAINING 5-HYDROXY-METHYLIMIDAZOLIDINE-2,4-DIONE COMPOUND AS ACTIVE INGREDIENT” (KYONGBO PHARM. CO., LTD., priority 2021, published 2024).
Values joined by “and” are separate entries in the source; they are usually repeats but may differ in a detail not shown here. Identical values can stand only once.

Legend:
beagles = test: 13-week repeated oral toxicity: blood coagulation test (PT, aPTT, fibrinogen); type: in vivo, beagle
Method: Blood Coagulation Test (PT, aPTT, Fibrinogen)
2 ml of collected blood was placed in a 3.2% sodium citrate tube, and centrifuged at 4,000 rpm for 10 minutes at 4° C., and plasma was collected for blood coagulation analysis. Prothrombin time (PT), activated partial thromboplastin time (aPTT), and fibrinogen (FIB) were analyzed using a blood coagulation measuring device (Werfen ACL ELITE Pro).

[1] = test system: dogs with chronic renal failure; test: Therapeutic effect on dogs with chronic renal failure (blood creatinine); type: in vivo, dog; conditions: change before/after
Method: An experiment was conducted to determine the therapeutic effect and optimal dosage of 5-hydroxy-1-methylimidazolidine-2,4-dione in animal kidney disease. Dogs (5 dogs per group) diagnosed with chronic renal failure and with a blood creatinine concentration of 1.4 mg/dL or higher were treated with 5-hydroxy-methylimidazolidine-2,4-dione at […] of 0, 12.5, 25, 50, and 100 mg/kg for 2 months, and the change in blood creatinine concentration (AsCr) before and after administration was determined.

[2] = G2 200 mg/kg, repeated administration for 13 week, female, group mean
[3] = G2 200 mg/kg, repeated administration for 13 week, female, individual animals
[4] = G2 200 mg/kg, repeated administration for 13 week, male, group mean
[5] = G2 200 mg/kg, repeated administration for 13 week, male, individual animals
[6] = G3 500 mg/kg, repeated administration for 13 week, female, group mean
[7] = G3 500 mg/kg, repeated administration for 13 week, female, individual animals
[8] = G3 500 mg/kg, repeated administration for 13 week, male, group mean
[9] = G3 500 mg/kg, repeated administration for 13 week, male, individual animals
[10] = G4 1,000 mg/kg, repeated administration for 13 week, female, group mean
[11] = G4 1,000 mg/kg, repeated administration for 13 week, female, individual animals
[12] = G4 1,000 mg/kg, repeated administration for 13 week, male, group mean
[13] = G4 1,000 mg/kg, repeated administration for 13 week, male, individual animals
[14] = before administration (day 0), 200 mg/kg group (G2), female, individual animals, 200 mg/kg
[15] = before administration (day 0), 200 mg/kg group (G2), female
[16] = before administration (day 0), 200 mg/kg group (G2), male, individual animals, 200 mg/kg
[17] = before administration (day 0), 200 mg/kg group (G2), male
[18] = before administration (day 0), 500 mg/kg group (G3), female, individual animals, 500 mg/kg
[19] = before administration (day 0), 500 mg/kg group (G3), female
[20] = before administration (day 0), 500 mg/kg group (G3), male, individual animals, 500 mg/kg
[21] = before administration (day 0), 500 mg/kg group (G3), male
[22] = before administration (day 0), 1,000 mg/kg group (G4), female, individual animals
[23] = before administration (day 0), 1,000 mg/kg group (G4), female
[24] = before administration (day 0), 1,000 mg/kg group (G4), male, individual animals
[25] = before administration (day 0), 1,000 mg/kg group (G4), male

CN1C(=O)NC(=O)C1O (centres unmarked) [KBP-001, 5-hydroxy-1-methylimidazolidine-2,4-dione]
FIB (beagles; [2]): 195.00 mg/dL
PT (beagles; [2]): 7.67 s
aPTT (beagles; [2]): 14.03 s
FIB (beagles; [3]): 170 mg/dL and 164 mg/dL and 251 mg/dL
PT (beagles; [3]): 7.6 sec (2×) and 7.8 sec
aPTT (beagles; [3]): 13.8 s and 13.3 s and 15.0 s
FIB (beagles; [4]): 293.00 mg/dL
PT (beagles; [4]): 7.87 s
aPTT (beagles; [4]): 13.13 s
FIB (beagles; [5]): 299 mg/dL and 268 mg/dL and 312 mg/dL
PT (beagles; [5]): 8.5 s and 8.2 s and 6.9 s
aPTT (beagles; [5]): 12.7 s and 13.0 s and 13.7 s
FIB (beagles; [6]): 250.00 mg/dL
PT (beagles; [6]): 7.53 s
aPTT (beagles; [6]): 14.37 s
FIB (beagles; [7]): 212 mg/dL and 230 mg/dL and 308 mg/dL
PT (beagles; [7]): 8.6 s and 6.7 s and 7.3 s
aPTT (beagles; [7]): 15.2 s and 13.7 s and 14.2 s
FIB (beagles; [8]): 312.67 mg/dL
PT (beagles; [8]): 7.20 s
aPTT (beagles; [8]): 15.17 s
FIB (beagles; [9]): 347 mg/dL and 302 mg/dL and 289 mg/dL
PT (beagles; [9]): 7.4 s and 7.2 s and 7.0 s
aPTT (beagles; [9]): 15.3 s and 14.8 s and 15.4 s
FIB (beagles; [10]): 307.00 mg/dL
PT (beagles; [10]): 7.57 s
aPTT (beagles; [10]): 14.03 s
FIB (beagles; [11]): 442 mg/dL and 273 mg/dL and 206 mg/dL
PT (beagles; [11]): 7.1 sec (2×) and 8.5 sec
aPTT (beagles; [11]): 12.9 s and 13.0 s and 16.2 s
FIB (beagles; [12]): 318.67 mg/dL
PT (beagles; [12]): 7.53 s
aPTT (beagles; [12]): 13.93 s
FIB (beagles; [13]): 292 mg/dL and 386 mg/dL and 278 mg/dL
PT (beagles; [13]): 7.6 s and 7.3 s and 7.7 s
aPTT (beagles; [13]): 15.2 s and 12.8 s and 13.8 s
FIB (beagles; [14]): 114 mg/dL and 184 mg/dL and 218 mg/dL
PT (beagles; [14]): 8.5 s and 7.6 s and 7.3 s
aPTT (beagles; [14]): 14.9 s and 15.3 s and 14.0 s
FIB, Mean (beagles; [15]): 172.00 mg/dL
PT, Mean (beagles; [15]): 7.80 s
aPTT, Mean (beagles; [15]): 14.73 s
FIB (beagles; [16]): 270 mg/dL and 254 mg/dL and 233 mg/dL
PT (beagles; [16]): 9.2 s and 8.4 s and 7.2 s
aPTT (beagles; [16]): 15.5 s and 12.1 s and 12.4 s
FIB, Mean (beagles; [17]): 252.33 mg/dL
PT, Mean (beagles; [17]): 8.27 s
aPTT, Mean (beagles; [17]): 13.33 s
FIB (beagles; [18]): 186 mg/dL and 199 mg/dL and 268 mg/dL
PT (beagles; [18]): 8.8 s and 7.4 s and 7.9 s
aPTT (beagles; [18]): 14.5 s and 11.9 s and 13.8 s
FIB, Mean (beagles; [19]): 217.67 mg/dL
PT, Mean (beagles; [19]): 8.03 s
aPTT, Mean (beagles; [19]): 13.40 s
FIB (beagles; [20]): 235 mg/dL and 254 mg/dL and 239 mg/dL
PT (beagles; [20]): 7.6 s and 7.2 s and 7.3 s
aPTT (beagles; [20]): 15.2 s and 14.6 s and 12.1 s
FIB, Mean (beagles; [21]): 242.67 mg/dL
PT, Mean (beagles; [21]): 7.37 s
aPTT, Mean (beagles; [21]): 13.97 s
FIB (beagles; [22]): 237 mg/dL and 230 mg/dL and 258 mg/dL
PT (beagles; [22]): 7.6 s and 7.8 s and 8.3 s
aPTT (beagles; [22]): 11.1 s and 14.2 s and 15.6 s
FIB, Mean (beagles; [23]): 194.73 mg/dL
PT, Mean (beagles; [23]): 6.53 s
aPTT, Mean (beagles; [23]): 11.62 s
FIB (beagles; [24]): 305 mg/dL and 312 mg/dL and 237 mg/dL
PT (beagles; [24]): 8.3 s and 7.2 s and 8.0 s
aPTT (beagles; [24]): 14.8 s and 11.3 s and 14.7 s
FIB, Mean (beagles; [25]): 200.81 mg/dL
PT, Mean (beagles; [25]): 6.57 s
aPTT, Mean (beagles; [25]): 11.52 s
ΔsCr ([1]; high-dose 50 mg/kg for 2 months, 50 mg/kg): -0.02 ± 0.22 mg/dL
ΔsCr ([1]; high-dose 50 mg/kg for 2 months, listed as 5-hydroxy-1-methylimidazolidine-2,4-dione, 50 mg/kg): -0.02 ± 0.22 mg/dL
ΔsCr ([1]; highest-dose 100 mg/kg for 2 months, 100 mg/kg): 0.07 ± 0.20 mg/dL
ΔsCr ([1]; highest-dose 100 mg/kg for 2 months, listed as 5-hydroxy-1-methylimidazolidine-2,4-dione, 100 mg/kg): 0.07 ± 0.20 mg/dL
ΔsCr ([1]; low-dose 12.5 mg/kg for 2 months, 12.5 mg/kg): 0.58 ± 0.49 mg/dL
ΔsCr ([1]; low-dose 12.5 mg/kg for 2 months, listed as 5-hydroxy-1-methylimidazolidine-2,4-dione, 12.5 mg/kg): 0.58 ± 0.49 mg/dL
ΔsCr ([1]; medium-dose 25 mg/kg for 2 months, 25 mg/kg): 0.10 ± 0.34 mg/dL
ΔsCr ([1]; medium-dose 25 mg/kg for 2 months, listed as 5-hydroxy-1-methylimidazolidine-2,4-dione, 25 mg/kg): 0.10 ± 0.34 mg/dL
